Data on 2 compounds can be found in ChEMBL document CHEMBL1129701, “-Vinyllysine and -vinylarginine are time-dependent inhibitors of their cognate decarboxylases” (Bioorg Med Chem Lett, 1996).

The structures appear in SMILES notation.

Data set [1] is described as follows: Half life was reported. The class given is ADME.
The nature of data set [2]: Compound was evaluated for binding affinity towards L-arginine decarboxylase (ADC) from Escherichia coli in UV time dependent assay.
The test system of data set [3] is Escherichia coli. Nature of the data set: Rate of inactivation against L-arginine decarboxylase (ADC) from Escherichia coli was determined in UV time dependent assay.
Data set [4] has as its system Escherichia coli. Nature of the data set: Compound was evaluated for inhibition of L-arginine decarboxylase (ADC) from Escherichia coli in UV time dependent assay.
Data set [5] can be described thus: Compound was evaluated for binding affinity against L-lysine decarboxylase (LDC) from Bacterium cadaveris in UV time dependent assay.
Data set [6] deals with bacterium cadaveris. In words: Rate of inactivation against L-lysine decarboxylase (LDC) from Bacterium cadaveris was determined in UV time dependent assay.
Data set [7] concerns bacterium cadaveris. Nature of the data set: Compound was evaluated for inhibition L-lysine decarboxylase (LDC) from Bacterium cadaveris in UV time dependent assay.

The half-life is the time needed for the level to fall by half in the phase considered. Read a high half-life as slow loss. By Km is commonly meant the concentration of substrate that gives half-maximal velocity.

`C=C[C@](N)(CCCNC(=N)N)C(=O)O` (racemic) yielded a half-life in data set [1] of 19 min. Moreover, in data set [2], the Ki came to 1800 µM. The K inact in data set [3] was determined as 0.036 min⁻¹. The Km in data set [4] was 180 µM.

`C=C[C@](N)(CCCCN)C(=O)O` (racemic) came in with a half-life in data set [1] of 35 min. The Ki in data set [5] worked out at 500 µM. The compound further displayed a K inact in data set [6] of 0.02 min⁻¹. Further, the Km in data set [7] came to 640 µM.
